Data published in patent US10681909B2, “Herbicidal triazoles” (FMC Corporation, priority 2014, dated 2020).

Experiments:
[1] = system: barnyardgrass; experiment: Test A preemergence; assay type: in vivo, Echinochloa crus-galli; details: 0 to 100 scale (0 no effect, 100 complete control)
Procedure, shortened: (§1)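 Test chemicals, formulated in a surfactant-containing non-phytotoxic solvent mixture, are applied either as a directed soil spray to newly planted seeds or as a postemergence application to plants at the one- to two-leaf stage (2–10 cm). All plants grow in a loam soil and sand blend.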

[2] = system: barnyardgrass; experiment: Test A postemergence; assay type: in vivo, Echinochloa crus-galli; details: 0 to 100 scale (0 no effect, 100 complete control), approx. 10 d
Procedure, shortened: as §1

[3] = system: wheat; experiment: Test A postemergence; assay type: in vivo, Triticum aestivum; details: 0 to 100 scale (0 no effect, 100 complete control), approx. 10 d
Procedure, shortened: as §1

[4] = system: corn; experiment: Test A postemergence; assay type: in vivo, Zea mays; details: 0 to 100 scale (0 no effect, 100 complete control), approx. 10 d
Procedure, shortened: as §1

[5] = system: rice; experiment: Test B flooded paddy test; assay type: in vivo, Oryza sativa; details: 250 g ai/ha, applied to paddy water at 2-leaf stage, visual rating after 13 to 15 d, scale 0 (no effect) to 100 (complete control)
Procedure, shortened: (§2)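 Pots were flooded to 3 cm above the soil at treatment, and compounds were applied directly into the paddy water. That depth was held throughout. After 13 to 15 d in a greenhouse, plants were rated visually against untreated controls.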

[6] = system: sedge, umbrella; experiment: Test B flooded paddy test; assay type: in vivo, Cyperus difformis; details: 250 g ai/ha, applied to paddy water at 2-leaf stage, visual rating after 13 to 15 d, scale 0 (no effect) to 100 (complete control)
Procedure, shortened: as §2

[7] = system: barnyardgrass; experiment: Test B flooded paddy test; assay type: in vivo, Echinochloa crus-galli; details: 250 g ai/ha, applied to paddy water at 2-leaf stage, visual rating after 13 to 15 d, scale 0 (no effect) to 100 (complete control)
Procedure, shortened: as §2

[8] = system: blackgrass; experiment: Test C postemergence; assay type: in vivo, Alopecurus myosuroides
Procedure, shortened: (§3)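 Seeds were planted in loam soil plus sand and sprayed preemergence. In parallel, potted plants in a peat-based medium were sprayed postemergence at 2 to 18 cm (1- to 4-leaf stage). Compounds were formulated in non-phytotoxic solvent with surfactant.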

[9] = system: ryegrass, Italian; experiment: Test C postemergence; assay type: in vivo, Lolium multiflorum
Procedure, shortened: as §3

[10] = system: wheat (winter wheat); experiment: Test C postemergence; assay type: in vivo, Triticum aestivum
Procedure, shortened: as §3

[11] = system: foxtail, giant; experiment: Test C postemergence; assay type: in vivo, Setaria faberii
Procedure, shortened: as §3

[12] = system: lambsquarters; experiment: Test C postemergence; assay type: in vivo, Chenopodium album
Procedure, shortened: as §3

[13] = system: morningglory; experiment: Test C postemergence; assay type: in vivo, Ipomoea coccinea
Procedure, shortened: as §3

[14] = system: nutsedge, yellow; experiment: Test C postemergence; assay type: in vivo, Cyperus esculentus
Procedure, shortened: as §3

[15] = system: pigweed; experiment: Test C postemergence; assay type: in vivo, Amaranthus retroflexus
Procedure, shortened: as §3

[16] = system: oilseed rape; experiment: Test C postemergence; assay type: in vivo, Brassica napus
Procedure, shortened: as §3

[17] = system: waterhemp; experiment: Test C postemergence; assay type: in vivo, Amaranthus rudis
Procedure, shortened: as §3

[18] = system: chickweed; experiment: Test C postemergence; assay type: in vivo, Stellaria media
Procedure, shortened: as §3

[19] = system: oat, wild; experiment: Test C postemergence; assay type: in vivo, Avena fatua
Procedure, shortened: as §3

[20] = system: kochia; experiment: Test C postemergence; assay type: in vivo, Kochia scoparia
Procedure, shortened: as §3

CCCOc1nc(-c2ccccc2)nn1Cc1ccnc(C(F)(F)F)c1 [Compound 33]
90: Plant response rating (scale of 0 to 100 where 0 is no effect and 100 is complete control) ([12]; 250 g ai/ha) | Plant response rating (scale of 0 to 100 where 0 is no effect and 100 is complete control) ([15]; 62 g ai/ha) | Plant response rating (scale of 0 to 100 where 0 is no effect and 100 is complete control) ([20]; 31 g ai/ha) | Plant response rating (scale of 0 to 100 where 0 is no effect and 100 is complete control) ([20]; 62 g ai/ha) | Plant response rating (scale of 0 to 100 where 0 is no effect and 100 is complete control) ([20]; 125 g ai/ha) | Plant response rating (scale of 0 to 100 where 0 is no effect and 100 is complete control) ([20]; 250 g ai/ha)
40: Plant response rating (scale of 0 to 100 where 0 is no effect and 100 is complete control) ([16]; Oilseed Rape, 31 g ai/ha)
0: Plant response rating, Wheat ([3]; 125 g ai/ha) | Plant response rating, Rice, Flood [5] | Plant response rating, Barnyardgrass, Flood [7] | Plant response rating (scale of 0 to 100 where 0 is no effect and 100 is complete control) ([9]; 31 g ai/ha)
95: Plant response rating (scale of 0 to 100 where 0 is no effect and 100 is complete control) ([15]; 31 g ai/ha) | Plant response rating (scale of 0 to 100 where 0 is no effect and 100 is complete control) ([17]; 62 g ai/ha) | Plant response rating (scale of 0 to 100 where 0 is no effect and 100 is complete control) ([17]; 125 g ai/ha) | Plant response rating (scale of 0 to 100 where 0 is no effect and 100 is complete control) ([17]; 250 g ai/ha)
20: Plant response rating, Barnyardgrass ([2]; 125 g ai/ha) | Plant response rating, Corn ([4]; 125 g ai/ha) | Plant response rating (scale of 0 to 100 where 0 is no effect and 100 is complete control) ([19]; 125 g ai/ha)
25: Plant response rating (scale of 0 to 100 where 0 is no effect and 100 is complete control) ([19]; 250 g ai/ha)
10: Plant response rating (scale of 0 to 100 where 0 is no effect and 100 is complete control) ([8]; 125 g ai/ha) | Plant response rating (scale of 0 to 100 where 0 is no effect and 100 is complete control) ([8]; 250 g ai/ha) | Plant response rating (scale of 0 to 100 where 0 is no effect and 100 is complete control) ([11]; 31 g ai/ha) | Plant response rating (scale of 0 to 100 where 0 is no effect and 100 is complete control) ([11]; 62 g ai/ha) | Plant response rating (scale of 0 to 100 where 0 is no effect and 100 is complete control) ([14]; 62 g ai/ha) | Plant response rating (scale of 0 to 100 where 0 is no effect and 100 is complete control) ([14]; 125 g ai/ha) | Plant response rating (scale of 0 to 100 where 0 is no effect and 100 is complete control) ([19]; 31 g ai/ha) | Plant response rating (scale of 0 to 100 where 0 is no effect and 100 is complete control) ([19]; 62 g ai/ha)
75: Plant response rating (scale of 0 to 100 where 0 is no effect and 100 is complete control) ([13]; 250 g ai/ha)
60: Plant response rating (scale of 0 to 100 where 0 is no effect and 100 is complete control) ([16]; Oilsee Rape, 250 g ai/ha) | Plant response rating (scale of 0 to 100 where 0 is no effect and 100 is complete control) ([18]; 62 g ai/ha) | Plant response rating (scale of 0 to 100 where 0 is no effect and 100 is complete control) ([18]; 125 g ai/ha)
98: Plant response rating (scale of 0 to 100 where 0 is no effect and 100 is complete control) ([15]; 125 g ai/ha) | Plant response rating (scale of 0 to 100 where 0 is no effect and 100 is complete control) ([15]; 250 g ai/ha)
50: Plant response rating, Barnyardgrass ([1]; 125 g ai/ha) | Plant response rating, Barnyardgrass ([2]; 500 g ai/ha)
5: Plant response rating (scale of 0 to 100 where 0 is no effect and 100 is complete control) ([8]; 31 g ai/ha) | Plant response rating (scale of 0 to 100 where 0 is no effect and 100 is complete control) ([8]; 62 g ai/ha) | Plant response rating (scale of 0 to 100 where 0 is no effect and 100 is complete control) ([9]; 62 g ai/ha) | Plant response rating (scale of 0 to 100 where 0 is no effect and 100 is complete control) ([9]; 125 g ai/ha) | Plant response rating (scale of 0 to 100 where 0 is no effect and 100 is complete control) ([10]; 31 g ai/ha) | Plant response rating (scale of 0 to 100 where 0 is no effect and 100 is complete control) ([10]; 62 g ai/ha) | Plant response rating (scale of 0 to 100 where 0 is no effect and 100 is complete control) ([10]; 125 g ai/ha) | Plant response rating (scale of 0 to 100 where 0 is no effect and 100 is complete control) ([10]; 250 g ai/ha) | Plant response rating (scale of 0 to 100 where 0 is no effect and 100 is complete control) ([14]; 31 g ai/ha)
55: Plant response rating (scale of 0 to 100 where 0 is no effect and 100 is complete control) ([13]; 31 g ai/ha) | Plant response rating (scale of 0 to 100 where 0 is no effect and 100 is complete control) ([16]; Oilseed Rape, 62 g ai/ha) | Plant response rating (scale of 0 to 100 where 0 is no effect and 100 is complete control) ([18]; 31 g ai/ha)
80: Plant response rating, Barnyardgrass ([1]; 500 g ai/ha, approx. 10 d) | Plant response rating (scale of 0 to 100 where 0 is no effect and 100 is complete control) ([12]; 31 g ai/ha) | Plant response rating (scale of 0 to 100 where 0 is no effect and 100 is complete control) ([13]; 62 g ai/ha) | Plant response rating (scale of 0 to 100 where 0 is no effect and 100 is complete control) ([16]; Oilseed Rape, 125 g ai/ha) | Plant response rating (scale of 0 to 100 where 0 is no effect and 100 is complete control) ([17]; 31 g ai/ha) | Plant response rating (scale of 0 to 100 where 0 is no effect and 100 is complete control) ([18]; 250 g ai/ha)
15: Plant response rating (scale of 0 to 100 where 0 is no effect and 100 is complete control) ([9]; 250 g ai/ha) | Plant response rating (scale of 0 to 100 where 0 is no effect and 100 is complete control) ([11]; 125 g ai/ha) | Plant response rating (scale of 0 to 100 where 0 is no effect and 100 is complete control) ([11]; 250 g ai/ha) | Plant response rating (scale of 0 to 100 where 0 is no effect and 100 is complete control) ([14]; 250 g ai/ha)
85: Plant response rating, Sedge, Umbrella, Flood [6] | Plant response rating (scale of 0 to 100 where 0 is no effect and 100 is complete control) ([12]; 62 g ai/ha) | Plant response rating (scale of 0 to 100 where 0 is no effect and 100 is complete control) ([12]; 125 g ai/ha) | Plant response rating (scale of 0 to 100 where 0 is no effect and 100 is complete control) ([13]; 125 g ai/ha)
30: Plant response rating, Wheat ([3]; 500 g ai/ha) | Plant response rating, Corn ([4]; 500 g ai/ha)
